# Measurements as given in patent US12384780B2, “PARP1 inhibitors and uses thereof” (XinThera, Inc., priority 2022, dated 2025).
# Assays:
# PARP2 = target: T1, PARP2 (Homo sapiens, UniProt Q9UGN5); assay: Biochemical fluorescent polarization (FP) assay, displacement of PARPi-FL, PARP2; type: binding; details: 20 nM protein, 3 nM PARPi-FL, 4 h at room temperature; read-out: FP PARP2 pIC50 (converted)
# T1 construct: made in house
# Protocol: (§1) Compounds were characterized using an assay measuring the displacement of a commercially available fluorescently labeled PARP 1/2 inhibitor (PARPi-FL, Tocris Biosciences, #6461) as exemplified in assays performed in WO2014/064149 and WO2021/013735A1. The assay was performed utilizing the following method: Compounds were dissolved in DMSO an Echo550 liquid handler was utilized to make serial dilations in the desired concentration range in Optiplate-384F plates. 100% DMSO was used for the high (with protein) and low (without protein) control samples. 20 nL of compound or DMSO alone was added to individual assay plate wells. PARP1 and PARP2 protein were expressed, purified, and diluted in assay buffer containing 50 mM Tris pH 8.0, 0.001% Triton X-100, 10 mM MgCl2, 150 mM NaCl to a final concentration of 20 nM. The PARPi-FL was then added at a final concentration of 3 nM. The assay plate was centrifuged at 1000 rpm for 1 min and incubated for 4 h at room temperature. […] [formula]
# [1] = system: MDA-MB-436 (mutated BRCA1) cells; assay: Cell growth inhibition assay (CellTiter-Glo), MDA-MB-436; type: cell-based; details: Homo sapiens, MDA-MB-436, 168 h, 500 cells/well, 7 days, CellTiter Glo 2.0; read-out: MDA-MB-436 pEC50 (converted)
# Protocol: (§2) Cell proliferation was measured through the cell viability assay using DLD-1 BRCA2(−/−) and parental isogenic pair and MDA-MB-436 (mutated BRCA1) cell lines. The CellTiter-Glo (CTG) based cell viability assay is designed to determine the number of viable cells in the culture because of compound effect, by quantifying ATP, which indicates the presence of metabolically active cells.
# (§3) DLD-1 BRCA2(−/−) and parental isogenic pair were cultured in RPMI 1640 supplemented with […] (FBS), and […] cells were cultured in DMEM supplemented with 10% FBS. Both were cultured at 37° C. with […]. Invention compounds were distributed to the 384 well plate (Corning, 3764) using Echo acoustic liquid handler to form a 1:3 serially diluted final concentration with top dose of 10 or 30 μM. The cells were seeded into the plate in the density of 50 cells/well (DLD-1 parental), 200 cells/well (DLD-1 BRCA2−/−), or 500 cells/well (MDA-MB-436). After a short spun, the cells were cultured in a well moisturized incubator at 37° C. with 5% CO2 for 7 days without disturbance. The cell viability was measured by CellTiter Glo 2.0 assay kit (Promega, G9243), and growth inhibition rate was calculated and plotted against final compound concentration, and the data were fitted in Xfit to generate IC50 values.
# PARP1 = target: T2, PARP1 (Homo sapiens, UniProt P09874); assay: Biochemical fluorescent polarization (FP) assay, displacement of PARPi-FL, PARP1; type: binding; details: 20 nM protein, 3 nM PARPi-FL, 4 h at room temperature; read-out: FP PARP1 pIC50 (converted)
# T2 construct: made in house
# T2 sequence (P09874 whole entry): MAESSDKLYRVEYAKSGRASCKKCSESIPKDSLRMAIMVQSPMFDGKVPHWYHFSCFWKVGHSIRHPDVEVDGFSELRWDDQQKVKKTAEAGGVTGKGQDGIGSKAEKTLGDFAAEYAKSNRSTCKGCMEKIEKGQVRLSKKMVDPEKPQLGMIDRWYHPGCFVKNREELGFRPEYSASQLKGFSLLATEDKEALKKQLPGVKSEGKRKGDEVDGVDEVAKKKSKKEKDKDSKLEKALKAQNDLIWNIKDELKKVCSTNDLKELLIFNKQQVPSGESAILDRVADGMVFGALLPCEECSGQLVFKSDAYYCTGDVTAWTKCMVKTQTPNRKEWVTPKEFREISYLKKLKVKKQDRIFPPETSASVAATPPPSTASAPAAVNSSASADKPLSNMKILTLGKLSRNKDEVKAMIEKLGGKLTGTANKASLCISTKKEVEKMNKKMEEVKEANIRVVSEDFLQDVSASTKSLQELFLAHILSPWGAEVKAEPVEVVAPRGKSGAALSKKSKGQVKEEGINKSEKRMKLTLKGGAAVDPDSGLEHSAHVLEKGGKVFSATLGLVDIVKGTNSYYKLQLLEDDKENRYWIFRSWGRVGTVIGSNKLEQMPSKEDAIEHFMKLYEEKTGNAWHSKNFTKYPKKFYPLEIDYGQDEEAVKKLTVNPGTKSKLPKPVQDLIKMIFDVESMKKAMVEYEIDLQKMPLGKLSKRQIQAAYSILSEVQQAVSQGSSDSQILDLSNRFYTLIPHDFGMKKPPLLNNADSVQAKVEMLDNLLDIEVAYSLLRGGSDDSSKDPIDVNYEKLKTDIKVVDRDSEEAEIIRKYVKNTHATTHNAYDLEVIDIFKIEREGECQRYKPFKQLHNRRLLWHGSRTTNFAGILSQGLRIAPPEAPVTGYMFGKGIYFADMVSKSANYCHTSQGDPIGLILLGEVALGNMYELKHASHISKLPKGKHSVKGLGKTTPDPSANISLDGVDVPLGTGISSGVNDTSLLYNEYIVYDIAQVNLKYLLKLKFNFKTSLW
# Protocol: as §1
# DLD-1 BRCA2(−/−) cells = assay: Cell growth inhibition assay (CellTiter-Glo), DLD-1 BRCA2(−/−); type: cell-based; details: Homo sapiens, DLD-1, 168 h; 200 cells/well, 7 days, CellTiter Glo 2.0; read-out: DLD-1 BRCA2(−/−) pEC50 (converted)
# Protocol: as §2, §3
# T1 sequence (Q9UGN5 whole entry): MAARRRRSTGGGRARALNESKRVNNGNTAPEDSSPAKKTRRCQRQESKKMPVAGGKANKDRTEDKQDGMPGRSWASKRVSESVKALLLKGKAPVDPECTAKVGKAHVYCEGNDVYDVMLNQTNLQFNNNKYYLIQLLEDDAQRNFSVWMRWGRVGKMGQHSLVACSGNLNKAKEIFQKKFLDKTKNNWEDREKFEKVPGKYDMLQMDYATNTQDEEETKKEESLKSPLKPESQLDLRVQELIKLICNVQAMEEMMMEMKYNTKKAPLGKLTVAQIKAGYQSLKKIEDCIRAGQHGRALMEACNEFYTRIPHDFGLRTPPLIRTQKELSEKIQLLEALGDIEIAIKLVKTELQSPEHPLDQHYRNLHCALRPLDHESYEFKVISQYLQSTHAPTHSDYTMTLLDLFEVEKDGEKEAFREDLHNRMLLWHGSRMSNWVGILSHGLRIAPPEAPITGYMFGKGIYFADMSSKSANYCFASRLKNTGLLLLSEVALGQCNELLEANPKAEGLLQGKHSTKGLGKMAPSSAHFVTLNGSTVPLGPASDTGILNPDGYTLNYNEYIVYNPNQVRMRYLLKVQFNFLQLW
smiles,measurement,setting,value
Cc1cc2ncc(CN3CCN(c4cc(F)c(C#N)cc4F)CC3)cc2[nH]c1=O [Example 13],IC50,PARP2,> 100000 nM
same,EC50,[1],3.98 nM
same,IC50,PARP1,5.01 nM
same,EC50,DLD-1 BRCA2(−/−) cells,5.01 nM
N#Cc1ccc(N2CCN(Cc3cnc4cc(Cl)c(=O)[nH]c4c3)CC2)c(F)n1 [Example 61],IC50,PARP2,> 100000 nM
same,EC50,[1],2 nM
same,IC50,PARP1,6.31 nM
same,EC50,DLD-1 BRCA2(−/−) cells,3.16 nM
Cc1cc2ncc(CN3CCN(c4ccc(F)cn4)[C@H](C)C3)cc2[nH]c1=O [Example 23],IC50,PARP2,> 100000 nM
same,EC50,[1],200 nM
same,IC50,PARP1,39.8 nM
same,EC50,DLD-1 BRCA2(−/−) cells,100 nM
C[C@@H]1CN(Cc2cnc3cc(C4CC4)c(=O)[nH]c3c2)CCN1c1ccc(C#N)cn1 [Example 25],IC50,PARP2,> 100000 nM
same,EC50,[1],50.1 nM
same,IC50,PARP1,6.31 nM
same,EC50,DLD-1 BRCA2(−/−) cells,31.6 nM
Cc1cc2ncc(CN3CCN(c4ccc(C#N)nc4F)CC3)cc2[nH]c1=O [Example 78],IC50,PARP2,> 100000 nM
same,EC50,[1],3.16 nM
same,IC50,PARP1,6.31 nM
same,EC50,DLD-1 BRCA2(−/−) cells,3.98 nM
N#Cc1ccc(N2CCN(Cc3cnc4cc(Cl)c(=O)[nH]c4c3)CC2)c(Cl)n1 [Example 77],IC50,PARP2,> 100000 nM
same,EC50,[1],0.794 nM
same,IC50,PARP1,6.31 nM
same,EC50,DLD-1 BRCA2(−/−) cells,0.794 nM
Cc1cc2ncc(CN3CCN(c4ccc(C#N)nc4C(F)F)CC3)cc2[nH]c1=O [Example 31],IC50,PARP2,> 100000 nM
same,EC50,[1],6.31 nM
same,IC50,PARP1,6.31 nM
same,EC50,DLD-1 BRCA2(−/−) cells,15.8 nM
CCc1cc2ncc(CN3CCN(c4ccc(F)cc4C#N)CC3)cc2[nH]c1=O [Example 40],IC50,PARP2,12600 nM
same,EC50,[1],0.794 nM
same,IC50,PARP1,6.31 nM
same,EC50,DLD-1 BRCA2(−/−) cells,1 nM
CCc1cc2ncc(CN3CCN(c4ccc(C#N)cc4OC)CC3)cc2[nH]c1=O [Example 39],IC50,PARP2,> 100000 nM
same,EC50,[1],1.26 nM
same,IC50,PARP1,6.31 nM
same,EC50,DLD-1 BRCA2(−/−) cells,2 nM
CCc1cc2ncc(CN3CCN(c4ccc(C#N)c(F)c4)CC3)cc2[nH]c1=O [Example 38],IC50,PARP2,501 nM
same,EC50,[1],0.501 nM
same,IC50,PARP1,5.01 nM
same,EC50,DLD-1 BRCA2(−/−) cells,0.631 nM
CCc1cc2ncc(CN3CCN(c4ccc(C#N)cc4C#N)CC3)cc2[nH]c1=O [Example 52],IC50,PARP2,12600 nM
same,EC50,[1],0.631 nM
same,IC50,PARP1,25.1 nM
same,EC50,DLD-1 BRCA2(−/−) cells,0.794 nM
Cc1cc2ncc(CN3CCN(c4ccc(C#N)cc4)CC3)cc2[nH]c1=O [Example 43],IC50,PARP2,6310 nM
same,EC50,[1],2.51 nM
same,IC50,PARP1,5.01 nM
same,EC50,DLD-1 BRCA2(−/−) cells,3.16 nM
CCc1cc2ncc(CN3CCN(c4ccc(Br)cn4)CC3)cc2[nH]c1=O [Example 7],IC50,PARP2,> 100000 nM
same,EC50,[1],6.31 nM
same,IC50,PARP1,25.1 nM
same,EC50,DLD-1 BRCA2(−/−) cells,6.31 nM
"N#Cc1ccc(N2CCN(Cc3cnc4cc(C(F)F)c(=O)[nH]c4c3)CC2)nc1 [Example 48, 6-(4-{[7-(difluoromethyl)-6-oxo-5H-1,5-naphthyridin-3-yl]methyl}piperazin-1-yl)pyridine-3-carbonitrile]",IC50,PARP2,1260 nM
same,EC50,[1],1 nM
same,IC50,PARP1,3.98 nM
same,EC50,DLD-1 BRCA2(−/−) cells,1 nM
CCc1cc2ncc(CN3CCN(c4ccc(F)nc4)CC3)cc2[nH]c1=O [Example 34],IC50,PARP2,50100 nM
same,EC50,[1],39.8 nM
same,IC50,PARP1,10 nM
same,EC50,DLD-1 BRCA2(−/−) cells,50.1 nM
Cc1cc2ncc(CN3CCN(c4ccc(C#N)nc4C4CC4)CC3)cc2[nH]c1=O [Example 27],IC50,PARP2,> 100000 nM
same,EC50,[1],39.8 nM
same,IC50,PARP1,7.94 nM
same,EC50,DLD-1 BRCA2(−/−) cells,12.6 nM
"N#Cc1ccc(N2CCN(Cc3cnc4cc(C5CC5)c(=O)[nH]c4c3)[C@H]3C[C@H]32)nc1 (single isomer, unassigned) [Example 20]",IC50,PARP2,2510 nM
same,EC50,[1],39.8 nM
same,IC50,PARP1,5.01 nM
same,EC50,DLD-1 BRCA2(−/−) cells,50.1 nM
CCc1cc2ncc(CN3CCC(c4ccc(C#N)cn4)CC3)cc2[nH]c1=O [Example 64],IC50,PARP2,> 100000 nM
same,EC50,[1],2 nM
same,IC50,PARP1,5.01 nM
same,EC50,DLD-1 BRCA2(−/−) cells,5.01 nM
